According to patent US20090018118A1, “HETEROCYCLIC COMPOUNDS” (priority 2005, published 2009):
Structures can show the parent of a compound that is named as a salt. Where two headings read alike, the source gives them in different places.

Test system: cholesterol biosynthesis in HepG2 cells
Assay: Metabolic labeling of HepG2 cells with [3H]acetate; radio-HPLC sterol profile (inhibition of cholesterol biosynthesis)
Assay type: cell-based, human
Settings: HepG2; for activity at 10 µM: Homo sapiens, 24 h, Table I, sterol level normalized to normal medium (1.00), mean of 4 experiments; for activity at 10 µM / FF-MAS / cholesterol / desmosterol / lanosterol / lathosterol / zymosterol+7-dehydrocholesterol: 10 μM compound; for FF-MAS / cholesterol / desmosterol / lanosterol / lathosterol / zymosterol+7-dehydrocholesterol: Table II (arranged by sterol profile), normalized to normal medium (1.00)
Description: In accordance with the aims of the invention, the effect of the novel compounds on inhibition of cholesterol biosynthesis is assessed. An ex vivo method of metabolic labeling of immortal human hepatocytes is employed. The radioactively labeled early precursor of cholesterol [3H]acetate is added to cells with or without addition of an active new compound.
An ex vivo method of metabolic labeling of immortal human hepatocytes is employed. The radioactively labeled early precursor of cholesterol [3H]acetate is added to cells with or without addition of an active compound.
Cell culture incubation with potential inhibitors of cholesterol biosynthesis and statins Human hepatoma cell line (HepG2-ATCC No. HB-8065) is split in the recommended ratio (1:2-3) into 75 cm^2 cell flasks using two flasks per experimental condition. Cells are incubated at 37° C. with 5% CO2 in Dulbeco's modified Eagle medium (DMEM high (Sigma)) containing 5% calf serum (Sigma) and 1% L-glutamine (Sigma). After 24-hours-culturing in the growth medium, the medium is replaced with the one supplemented with 10 μM concentration of a LK compound, potential inhibitor of cholesterol biosynthesis. 10 μM solution of atorvastatin, inhibitor of HMG-CoA reductase, serves as a positive control.
After 24 hours the growth medium is changed and [^3H]acetate (NEN™ Life Science Products) added in a concentration of 40 μCi per ml of the medium (400 μCi per flask). After 4 hours cells are harvested using 2 ml of trypsin (Sigma) and the cell pellet is resuspended in 1 ml of distilled water. Cells are homogenized using the freeze and thaw method. From cell homogenate sterols are extracted and protein concentration determined using the Bio-Rad reagent.
Homogenates are transferred into 4 ml glass vial and sterols are extracted in 3 ml of extraction solution (75% n-heptane: 25% isopropanol (vol./vol.)) with ergosterol as an internal standard. For better extraction 100 μl of 0.3M NaH2PO4 (pH=1.0) is added. Closed vials are vigorously shaken (1800 rpm) for 2 hours. After extraction procedure vials are centrifuged (2000 g, 10 min) and the organic phase is transferred to fresh conical glass tubes. Extraction procedure is repeated using 1 ml of extraction solution for 15 min. Organic phases are pooled. Primary extracts are dried in vacuum centrifuge, redissolved in 3 ml of n-heptane, and incubated for 10 min at room temperature with mild shaking. After centrifugation (10 min, 2000 g) extracts are transferred into fresh glass tubes and stored in dark and cold.
The organic phase is dried, reconstituted in mobile phase for reversed phase HPLC separation and loaded onto a-HPLC column, Prism-RPN, 5 μm, 250×4,6 mm running in 100% acetonitrile at 1.00 ml/min at 40° C. temperature. Scintillation liquid is added after UV detection at 30 ml/h, at room temperature, to evaluate tritium labeled sterols on a radio detector.
Sterols are determined by comparing the eluted peaks with runs of commercial standards of lanosterol, ergosterol, desmosterol, zymosterol, 7-dehydrocholesterol, lathosterol and cholesterol or laboratory standards (FF-MAS-4,4-Dimethylcholesta-8(9),14,24-triene-3β-ol- and T-MAS-4,4-Dimethylcholesta8(9),24,diene-3,6-ol, Laboratory of Reproductive Biology, The Juliane Marie Center for Children, Women and Reproduction, University Hospital of Copenhagen, DK-2100 Copenhagen, Denmark). Results were normalized on ergosterol quantity and protein concentration. Results are presented as a mean from 4 separated experiments.
The influence of a 10 μM solution of novel LK-substances on cholesterol biosynthesis in the assay on HepG2 cells is presented in Table I. Compounds are arranged according to the building blocks, three of them are 2-pyridineethanols, 2-pyridineethylpiperazines and pyridinemethylpiperazines.
Normal medium pertains to cell cultures without a compound of the invention. Its sterol levels were used for normalization. 10 μM solution of atorvastatin serves as a positive control.

[1] = read-out: zymosterol+7-dehydrocholesterol

Q: OC(CN1CCN(CCc2ccccc2)CC1)c1cccnc1 (centres unmarked) [LK-980, 2-(4-Phenethylpiperazine-1-yl)-1-(pyridine3-yl)-1-ethanol trihydrobromide] was tested. Which activity at 10 µM (read-out: FF-MAS) did it give?
A: The activity at 10 µM was 254%.

Q: What about the activity at 10 µM (read-out: cholesterol) of the same compound?
A: The activity at 10 µM was 5%.

Q: And the activity at 10 µM (read-out: desmosterol)?
A: The activity at 10 µM was 0%.

Q: What about the activity at 10 µM (read-out: lanosterol) of the same compound?
A: The activity at 10 µM was 96%.

Q: What about the activity at 10 µM (read-out: lathosterol) of the same compound?
A: The activity at 10 µM was 49%.

Q: And the activity at 10 µM [1]?
A: The activity at 10 µM was 102%.

Q: What about the FF-MAS of the same compound?
A: The FF-MAS was 2.54.

Q: What about the cholesterol of the same compound?
A: Its cholesterol is 0.05.

Q: What about the desmosterol of the same compound?
A: Its desmosterol is 0.00.

Q: What about the lanosterol of the same compound?
A: The lanosterol was 0.96.

Q: What about the lathosterol of the same compound?
A: Its lathosterol is 0.49.

Q: And the “zymosterol+7-dehydrocholesterol” value?
A: The value was 1.02.

Q: With c1ccc(CCN2CCN(CCc3cccnc3)CC2)cc1 [LK-9100, 1-Phenethyl-4-(2-(pyridine-3-yl)ethyl)piperazine trihydrobromide] as the compound, how does the activity at 10 µM (read-out: FF-MAS) read?
A: The activity at 10 µM was 241%.

Q: What about the activity at 10 µM (read-out: cholesterol) of the same compound?
A: Its activity at 10 µM is 0%.

Q: And the activity at 10 µM (read-out: desmosterol)?
A: Its activity at 10 µM is 0%.

Q: What about the activity at 10 µM (read-out: lanosterol) of the same compound?
A: Its activity at 10 µM is 83%.

Q: What about the activity at 10 µM (read-out: lathosterol) of the same compound?
A: The activity at 10 µM was 30%.

Q: And the activity at 10 µM [1]?
A: The activity at 10 µM was 74%.

Q: And the FF-MAS?
A: The FF-MAS was 2.41.

Q: What about the cholesterol of the same compound?
A: The cholesterol was 0.00.

Q: And the desmosterol?
A: The desmosterol was 0.00.

Q: What about the lanosterol of the same compound?
A: Its lanosterol is 0.83.

Q: What about the lathosterol of the same compound?
A: The lathosterol was 0.30.

Q: And the “zymosterol+7-dehydrocholesterol” value?
A: The value was 0.74.

Q: O=C(Cc1cccnc1)N1CCN(CCc2ccccc2)CC1 [LK-9101B, 1-(4-Phenethylpiperazin-1-yl)-2-(pyridine-3-yl)ethanone] was tested. Which activity at 10 µM (read-out: FF-MAS) did it give?
A: The activity at 10 µM was 136%.

Q: What about the activity at 10 µM (read-out: cholesterol) of the same compound?
A: Its activity at 10 µM is 12%.

Q: And the activity at 10 µM (read-out: desmosterol)?
A: Its activity at 10 µM is 10%.

Q: And the activity at 10 µM (read-out: lanosterol)?
A: The activity at 10 µM was 94%.

Q: And the activity at 10 µM (read-out: lathosterol)?
A: The activity at 10 µM was 54%.

Q: What about the activity at 10 µM [1] of the same compound?
A: Its activity at 10 µM is 155%.

Q: And the FF-MAS?
A: The FF-MAS was 1.36.

Q: And the cholesterol?
A: Its cholesterol is 0.12.

Q: What about the desmosterol of the same compound?
A: Its desmosterol is 0.10.

Q: What about the lanosterol of the same compound?
A: Its lanosterol is 0.94.

Q: And the lathosterol?
A: Its lathosterol is 0.54.

Q: What about the “zymosterol+7-dehydrocholesterol” value of the same compound?
A: Its value is 1.55.

Q: For COc1ccc(CN2CCN(CCc3ccccc3)CC2)cn1 [LK-9106, 1-((6-Methoxypyridin-3-yl)methyl)-4-phenethylpiperazine trihydrobromide], which activity at 10 µM (read-out: FF-MAS) is on record?
A: Its activity at 10 µM is 200%.

Q: What about the activity at 10 µM (read-out: cholesterol) of the same compound?
A: The activity at 10 µM was 0%.

Q: And the activity at 10 µM (read-out: desmosterol)?
A: Its activity at 10 µM is 0%.

Q: And the activity at 10 µM (read-out: lanosterol)?
A: Its activity at 10 µM is 52%.

Q: And the activity at 10 µM (read-out: lathosterol)?
A: Its activity at 10 µM is 31%.

Q: What about the activity at 10 µM [1] of the same compound?
A: Its activity at 10 µM is 46%.

Q: And the FF-MAS?
A: The FF-MAS was 2.00.

Q: What about the cholesterol of the same compound?
A: The cholesterol was 0.00.

Q: What about the desmosterol of the same compound?
A: Its desmosterol is 0.00.

Q: And the lanosterol?
A: Its lanosterol is 0.52.

Q: What about the lathosterol of the same compound?
A: Its lathosterol is 0.31.

Q: And the “zymosterol+7-dehydrocholesterol” value?
A: The value was 0.46.

Q: How did the “sterol profile (in words)” value (10 μM, preferred profile: lowered cholesterol, no accumulation of lanosterol and post-lanosterol intermediates) turn out when FC(F)(F)c1ccc(CN2CCN(CCc3ccccc3)CC2)cn1 [LK-9107, 1-Phenethyl-4-((6(trifluoromethyl)pyridine-3-yl)methyl)piperazine trihydrobromide] was run?
A: Its value is “meets these criteria in considerable extent”.

Q: What about the activity at 10 µM (read-out: FF-MAS) of the same compound?
A: The activity at 10 µM was 129%.

Q: And the activity at 10 µM (read-out: cholesterol)?
A: Its activity at 10 µM is 0%.

Q: What about the activity at 10 µM (read-out: desmosterol) of the same compound?
A: Its activity at 10 µM is 0%.

Q: What about the activity at 10 µM (read-out: lanosterol) of the same compound?
A: Its activity at 10 µM is 36%.

Q: And the activity at 10 µM (read-out: lathosterol)?
A: Its activity at 10 µM is 11%.

Q: What about the activity at 10 µM [1] of the same compound?
A: Its activity at 10 µM is 20%.

Q: What about the FF-MAS of the same compound?
A: The FF-MAS was 1.29.

Q: What about the cholesterol of the same compound?
A: The cholesterol was 0.00.

Q: What about the desmosterol of the same compound?
A: Its desmosterol is 0.00.

Q: And the lanosterol?
A: The lanosterol was 0.36.

Q: What about the lathosterol of the same compound?
A: The lathosterol was 0.11.

Q: And the “zymosterol+7-dehydrocholesterol” value?
A: The value was 0.20.

Q: With c1ccc(CCN2CCN(Cc3cccnc3)CC2)cc1 [LK-9108, 1-Phenethyl-4-(pyridine-3-ylmethyl)piperazine trihydrobromide] as the compound, how does the activity at 10 µM (read-out: FF-MAS) read?
A: The activity at 10 µM was 310%.

Q: And the activity at 10 µM (read-out: cholesterol)?
A: Its activity at 10 µM is 0%.

Q: What about the activity at 10 µM (read-out: desmosterol) of the same compound?
A: Its activity at 10 µM is 0%.

Q: What about the activity at 10 µM (read-out: lanosterol) of the same compound?
A: The activity at 10 µM was 110%.

Q: And the activity at 10 µM (read-out: lathosterol)?
A: The activity at 10 µM was 74%.

Q: What about the activity at 10 µM [1] of the same compound?
A: Its activity at 10 µM is 140%.

Q: What about the FF-MAS of the same compound?
A: The FF-MAS was 3.10.

Q: What about the cholesterol of the same compound?
A: Its cholesterol is 0.00.

Q: What about the desmosterol of the same compound?
A: Its desmosterol is 0.00.

Q: What about the lanosterol of the same compound?
A: The lanosterol was 1.10.

Q: And the lathosterol?
A: The lathosterol was 0.74.

Q: And the “zymosterol+7-dehydrocholesterol” value?
A: The value was 1.40.

Q: For c1ccc(CCN2CCN(Cc3ccc(N4CCOCC4)nc3)CC2)cc1 [LK-9109B, 4-(5-((4-Phenethylpiperazin-1-yl)methyl)pyridine-2-yl)morpholine], which “FF-MAS accumulation (in words)” value (10 μM) is on record?
A: Its value is “notably accumulate FF-MAS”.

Q: And the activity at 10 µM (read-out: FF-MAS)?
A: Its activity at 10 µM is 650%.

Q: What about the activity at 10 µM (read-out: cholesterol) of the same compound?
A: The activity at 10 µM was 0%.

Q: What about the activity at 10 µM (read-out: desmosterol) of the same compound?
A: Its activity at 10 µM is 29%.

Q: And the activity at 10 µM (read-out: lanosterol)?
A: Its activity at 10 µM is 95%.

Q: What about the activity at 10 µM (read-out: lathosterol) of the same compound?
A: The activity at 10 µM was 9%.

Q: And the activity at 10 µM [1]?
A: The activity at 10 µM was 100%.

Q: And the FF-MAS?
A: The FF-MAS was 6.50.

Q: What about the cholesterol of the same compound?
A: Its cholesterol is 0.00.

Q: And the desmosterol?
A: Its desmosterol is 0.29.

Q: And the lanosterol?
A: The lanosterol was 0.95.

Q: And the lathosterol?
A: Its lathosterol is 0.09.

Q: And the “zymosterol+7-dehydrocholesterol” value?
A: Its value is 1.00.
